Test results published in PubChem BioAssay (NCI).
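1) Cells in 96-well plates. 2) Compound, 48 h, 5 concentrations. 3) Linear interpolation between surrounding doses. 4) Unreached endpoint = highest concentration. GI50 = concentration required for 50% inhibition of growth. TGI: total growth inhibition.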 Where a SMILES comes first, the peptide text is derived from it.

Tests used:
Assay in all cases: DTP human tumour cell line panel, 48 h
RXF-631 renal = test system: RXF-631 renal
M19-MEL melanoma = test system: M19-MEL melanoma
DMS 114 small cell lung = test system: DMS 114 small cell lung
KM20L2 colon = test system: KM20L2 colon
DLD-1 colon = test system: DLD-1 colon
HOP-18 NSCLC = test system: HOP-18 NSCLC
XF 498 CNS = test system: XF 498 CNS
MDA-N = test system: MDA-N

SMILES	TGI (RXF-631 renal) [µM]	TGI (M19-MEL melanoma) [µM]	TGI (DMS 114 small cell lung) [µM]	TGI (KM20L2 colon) [µM]	TGI (DLD-1 colon) [µM]	TGI (HOP-18 NSCLC) [µM]	TGI (XF 498 CNS) [µM]	GI50 (MDA-N) [µg/mL]	TGI (MDA-N)	GI50 (M19-MEL melanoma) [µM]	GI50 (KM20L2 colon) [µM]
CCC(C)C1NC(=O)C2CCCN2C(=O)CNC(=O)C(C)NC(=O)C(Cc2ccccc2)NC(=O)C(C(C)C)NC1=O (centres undefined) (cyclo(GPIVFA); configuration not given here)	> 100	> 100	> 100	> 100	> 100	> 100	–	–	–	–	–
COc1ccc2c(c1)[n+]([O-])c(-c1ccc(C)cc1)c(N)[n+]2[O-]	–	> 100	61.4	> 100	> 100	> 100	–	–	–	–	–
O=[N+]([O-])c1ccccc1C=NC12CC3CC(CC(C3)C1)C2	> 100	> 100	–	> 100	> 100	> 100	> 100	–	–	–	–
COc1ccc(-c2cc(-c3cc(Cl)cc(Br)c3O)[nH]c(=O)n2)cc1	–	46.4	38	38.6	38.4	55.7	–	–	–	–	–
C=C(CC(=O)O)C(=O)O (tested in a mixture with another compound)	–	–	–	–	–	–	–	> 50	> 50 µg/mL	–	–
CC(=O)[CH-]C(=O)c1ccccc1.CC(=O)[CH-]C(=O)c1ccccc1.Cl.[O-]c1ccccn1.[O-]c1ccccn1.[Ti+4]	–	> 100	–	> 100	–	–	–	–	–	> 100	> 100
C/C(=N\NC(=S)N1CC2CCC(CC2)C1)c1cccc(C)n1	–	–	–	–	–	–	–	–	17.8 µM	–	–
Cc1ccc(-c2cc(=O)c3cc(C)c(C)c(C(=O)O)c3o2)cc1N	> 100	> 100	> 100	> 100	> 100	> 100	> 100	–	–	–	–
O=C(O)CCc1c2ccc(=O)c(O)c-2oc2c(O)c(O)ccc12	–	–	–	–	–	–	–	–	36.5 µM	–	–
O=c1c(Br)cc2c(-c3ccccc3)c3cc(Br)c(O)c(Br)c3oc-2c1Br	–	–	–	–	–	–	–	–	> 100 µM	–	–
COC(=O)N/N=C(/CCC(=O)Nc1ccc(C)c(C)c1)CC(=O)C(C)(C)C	–	> 100	> 100	> 100	> 100	> 100	> 100	–	–	–	–
C#CC1(O)c2ccccc2C(=O)c2ccccc21	–	> 100	–	> 100	–	> 100	> 100	–	–	–	–
NC(N)=Nc1nc2ccc([N+](=O)[O-])cc2[nH]1	–	–	–	–	–	–	–	–	> 100 µM	–	–
COc1c(-c2ccc(O)c(O)c2)oc2c(O)c(O)cc(O)c2c1=O	–	–	–	–	–	–	–	–	> 100 µM	–	–
CCOC(=O)c1oc2ccc([N+](=O)[O-])c3c2c1CCC3	> 100	> 100	> 100	> 100	> 100	> 100	41	–	> 100 µM	–	–
Clc1ccc2nc(-c3ccccc3)nc(Cl)c2c1	> 100	> 100	> 100	> 100	> 100	–	–	–	–	–	–
CCCCN(CCCC)CCC(O)c1cc2c(Cl)cc(Cl)cc2c2cc(C(F)(F)F)ccc12 (centres undefined)	–	–	–	–	–	–	–	–	26 µM	–	–
Cc1ccc(NC(=S)SCCC(=O)O)cc1	> 100	–	> 100	> 100	–	–	–	–	–	–	–

SMILES	TGI (RXF-631 renal) [µM]	TGI (M19-MEL melanoma) [µM]	TGI (DMS 114 small cell lung) [µM]	TGI (KM20L2 colon) [µM]	TGI (DLD-1 colon) [µM]	TGI (HOP-18 NSCLC) [µM]	TGI (XF 498 CNS) [µM]	GI50 (MDA-N) [µg/mL]	TGI (MDA-N)	GI50 (M19-MEL melanoma) [µM]	GI50 (KM20L2 colon) [µM]
COc1ccc(/C=c2/sc3n(c2=O)NC2(CCC(C)CC2)NN=3)cc1 (centres undefined)	–	> 100	> 100	> 100	> 100	–	> 100	–	–	–	–
CC12CO[C@@](C)(CC(S(=O)(=O)c3ccccc3)C1)O2 (some centres undefined)	–	> 100	> 100	> 100	> 100	> 100	–	–	–	–	–
COC(=O)C1C=NNC1C(=O)OC (centres undefined)	> 100	> 100	> 100	> 100	–	> 100	> 100	–	–	–	–
CC(/C=C/c1ccccc1)=N\NC(N)=S	–	–	–	–	–	–	–	–	> 100 µM	–	–
Oc1ccc(CCNCc2cc3c(cc2Br)OCO3)cc1	–	–	–	–	–	–	–	–	> 100 µM	–	–
COc1cccc2c1C(=O)c1c(O)c3c(c(O)c1C2=O)C[C@@](O)(C(=O)CO)CC3OC1CC(O)C(O)C(C)O1 (some centres undefined)	21.2	1.96	0.958	6.28	10.8	6.06	1.24	–	1.98 µM	–	–
C=CC1(NS(=O)(=O)c2ccc(C)cc2)CCC(C(C)(C)C)CC1 (centres undefined)	–	> 100	> 100	> 100	> 100	> 100	–	–	–	–	–
Cc1ccn2c(CCc3nnc4cc(C)ccn34)nnc2c1	–	–	–	–	–	–	–	–	> 100 µM	–	–
O=C(CC1(O)C(=O)Nc2ccccc21)c1ccc(O)cc1 (centres undefined)	> 100	> 100	> 100	> 100	> 100	> 100	–	–	–	–	–
COC(=O)C(CBr)CBr	8.96	17.2	4.23	–	8.29	–	4.54	–	9.22 µM	–	–
Cc1cccc(N2C(=O)C(=O)C(c3nc4ccccc4s3)/C(=N/NC(=S)NN)C2=O)c1C (centres undefined)	> 100	> 100	> 100	> 100	–	–	> 100	–	–	–	–
CC(CNCCCNCCNCCCNCO)[N+](=O)[O-] (centres undefined)	30.3	–	30.6	31.7	14.4	28.3	29.9	–	–	–	–
CCN(CC)C(=O)N1CCN(C=S)CC1	–	> 100	> 100	> 100	> 100	> 100	–	–	–	–	–
O=[N+]([O-])c1cc(Cl)ccc1OCc1ccccc1	> 100	> 100	> 100	–	> 100	–	> 100	–	–	–	–
CC1C[C@]2(C[C@@H](C)C(=O)O2)O[C@@H]2CC3(C)[C@@H]4CCC5C(C)(C)OC(=O)C[C@H]6OO[C@]4(CC[C@]3(C)C12)CC56O (some centres undefined)	–	–	> 100	–	> 100	> 100	> 100	–	–	–	–
CC1=C(C(=O)Nc2ccc([N+](=O)[O-])cc2)C(c2ccc3c(c2)OCO3)C(C(=O)Nc2ccc([N+](=O)[O-])cc2)=C(C)N1	–	61.6	> 100	> 100	> 100	> 100	–	–	–	–	–
CN[C@@H](C)[C@H](N)c1ccccc1	> 100	–	–	–	> 100	> 100	–	–	–	–	–
C=C1C2CC(OC(C)=O)C3(C)C(c4ccoc4)OC(=O)[C@@H](O)[C@]13OC1C[C@H](OC(C)=O)C(C)(C)[C@H](CC(=O)OC)[C@]12C (some centres undefined)	> 100	> 100	> 100	> 100	–	> 100	–	–	–	–	–
